Measurements published in paper PMC11320734 (ACS Pharmacology & Translational Science, 2024).
Read-outs that look alike come from different tables or passages of the source.

Assays:
P-gp = test: Brain penetration study with/without P-gp inhibitor tariquidar; assay type: in vivo, male C57/BL6 mice; details: male, C57/BL6, mouse, with tariquidar 5 mg kg^–1 i.v. bolus, 30 min prior to RNB-61
Method: (§1) To characterize the pharmacokinetic behavior of RNB-61, studies in rodents were conducted at the in vivo facility of F. Hoffmann-La Roche Ltd. (Basel, Switzerland). The plasma-concentration time profile was studied in rodents after single-dose RNB-61 administration by oral gavage (p.o. microsuspension excipients 7.5% gelatin/0.62% NaCl) and intravenous bolus injection (i.v. solution, excipients NMP:NaCl (30:70)). Three groups of male Wistar rats (n = 2 per group) were administered RNB-61 either at 1 mg kg^–1 i.v., 3 mg kg^–1 p.o., or 26 mg kg^–1 p.o. Plasma samples were drawn at 0.083, 0.25, 0.5, 1, 2, 4, 8, and 24 postdose in the i.v. group and at 0.25, 0.5, 0.75, 1.5, 3, 5, 8, and 24 h postdose in the p.o. groups. The samples were analyzed for RNB-61 concentration by LC/MS-MS. For the LC/MS-MS analysis, and the samples were prepared by adding 100 uL to 400 uL ACN with ISTD (100 ng/mL Bosantan in ACN/MeOH 1/1), stirring, and centrifuging (4000 rpm, 65’). 100 uL of the supernatant were pipetted and diluted with 400 μL H2O at pH 3. The analytes were separated on a Restek C18 column (5 μm, 1.0 × 3 mm). The mobile phase consisted of water containing 0.1% HCOOH as solvent A and ACN containing 0.1% HCOOH as solvent B. The gradient curve starting with 5% B was changed to 90% B between 0.4 and 0.6 min and further increased to 95% B between 0.6 and 1.2 min. This was maintained until 1.4 min and then reduced and kept at 5% B between 1.45 and 2.0 min. The mass spectrometer was operated in the positive mode. All LC-MS/MS was done using the Agilent RapidFire Analyzer software (version 4.3). The pharmacokinetic parameters were estimated by noncompartmental analysis in the Certara WinNonlin software (version 5.3). A similar study design was run in mice with three groups receiving 2 mg kg^–1 i.v., 4 mg kg^–1 p.o., or 26 mg kg^–1 p.o., and plasma sampling occurring in a composite profile (n = 2 for each time point) up to 7 or 24 h postdose. Male C57/BL6 mice (n = 5 per group) were used to study the influence of P-gp efflux on brain penetration. Two groups of mice were administered RNB-61 by i.v. bolus injection at 1 mg kg^–1 (2 groups). In order to block P-gp activity, an i.v. bolus of 5 mg kg^–1 tariquidar[46] was injected into one group 30 min prior to RNB-61. Plasma was collected at 0.083, 0.25, 0.5, 2, 4, and 7 h postdose in a composite profile. Brain, CSF, and vitreous body were collected at terminal time points 0.5, 2, 4, and 7 h postdose.

[1] = as above; assay type: in vivo, male C57/BL6 mice
Method: as §1

TRPV1 = TRPV1 (Homo sapiens, UniProt Q8NER1); test: Endocannabinoid target profiling: TRPV1; details: Table S1; read-out: TRPV1 (Ki, IC50)
mouse CB2R = target: T1, mouse CB2R (Mus musculus, UniProt P47936); test: cAMP assay in CHO cells; assay type: cell-based; details: mean ± SD
T1 construct: expressed in transfected cells; host or cells: CHO cells

[2] = Hepatocyte clearance assay; assay type: in vitro ADME
Method: The hepatocyte clearance assay was performed as previously described.[39] For mice hepatocytes, the suspension cultures were either freshly prepared by liver perfusion or prepared from cryopreserved hepatocyte batches (pooled C57BL6 mouse hepatocytes were purchased from BioreclamationIVT (NY, USA)). For human hepatocytes, commercially available, pooled (5–20 donors), cryopreserved samples from nontransplantable liver tissues were used. For the suspension cultures, Nunc U96 PP-0.5 mL (Nunc Natural, 267245) plates were used, which were incubated in a Thermo Forma incubator from Fischer Scientific (Wohlen, Switzerland) equipped with shakers from Variomag Teleshake (Sterico, Wangen, Switzerland) for maintaining cell dispersion. The cell culture medium was William’s media supplemented with glutamine, antibiotics (100 IU/mL Penicillin-Streptomycin, Gibco), insulin, dexamethasone, and 10% fetal calf serum (FCS). Incubations of a test compound at 1 μM test concentration in suspension cultures of 1 × 10^6 cells mL^–1 (∼1 μg μL^–1 protein concentration) were performed in 96-well plates and shaken at 900 rpm for up to 2 h in a 5% CO2 atmosphere at 37 °C. After 3, 6, 10, 20, 40, 60, and 120 min, a 100 μL cell suspension in each well was quenched with 200 μL methanol containing an internal standard. Samples were then cooled and centrifuged before analysis by LC-MS/MS. […]

[3] = RNB-61 1 mg kg^–1 i.v. + tariquidar 5 mg kg^–1 i.v.
[4] = RNB-61 1 mg kg^–1 i.v., no tariquidar

T1 sequence (P47936 whole entry): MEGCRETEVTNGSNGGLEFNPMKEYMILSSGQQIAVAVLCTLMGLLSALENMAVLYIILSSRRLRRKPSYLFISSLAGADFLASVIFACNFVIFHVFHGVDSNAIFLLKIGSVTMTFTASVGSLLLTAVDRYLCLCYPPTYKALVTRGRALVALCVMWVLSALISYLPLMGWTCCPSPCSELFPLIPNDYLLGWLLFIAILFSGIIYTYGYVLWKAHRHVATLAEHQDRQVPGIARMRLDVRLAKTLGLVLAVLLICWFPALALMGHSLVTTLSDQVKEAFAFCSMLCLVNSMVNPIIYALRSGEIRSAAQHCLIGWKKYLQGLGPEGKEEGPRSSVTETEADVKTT
Chain of TRPV1 (Q8NER1 whole entry, species assumed): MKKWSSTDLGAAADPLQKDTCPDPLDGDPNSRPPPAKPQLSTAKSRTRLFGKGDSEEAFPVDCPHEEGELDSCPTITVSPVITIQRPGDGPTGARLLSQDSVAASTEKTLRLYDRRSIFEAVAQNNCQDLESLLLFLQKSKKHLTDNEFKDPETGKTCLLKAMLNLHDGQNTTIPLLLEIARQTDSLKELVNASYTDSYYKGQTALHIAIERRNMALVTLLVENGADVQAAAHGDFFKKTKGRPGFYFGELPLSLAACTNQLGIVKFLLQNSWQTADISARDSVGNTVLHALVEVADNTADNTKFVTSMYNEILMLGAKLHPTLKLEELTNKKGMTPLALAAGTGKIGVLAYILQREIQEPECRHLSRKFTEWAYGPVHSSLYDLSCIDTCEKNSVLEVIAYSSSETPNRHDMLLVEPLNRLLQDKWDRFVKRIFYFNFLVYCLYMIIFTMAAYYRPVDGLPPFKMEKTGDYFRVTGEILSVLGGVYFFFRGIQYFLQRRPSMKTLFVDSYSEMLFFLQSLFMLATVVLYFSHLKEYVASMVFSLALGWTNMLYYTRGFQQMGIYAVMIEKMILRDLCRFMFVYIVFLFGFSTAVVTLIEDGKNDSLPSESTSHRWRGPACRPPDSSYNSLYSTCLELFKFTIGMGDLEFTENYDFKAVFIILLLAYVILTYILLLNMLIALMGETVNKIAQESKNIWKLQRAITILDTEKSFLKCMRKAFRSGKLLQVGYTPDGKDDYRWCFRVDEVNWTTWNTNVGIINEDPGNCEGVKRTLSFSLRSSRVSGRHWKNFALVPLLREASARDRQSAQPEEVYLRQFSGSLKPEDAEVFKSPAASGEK

For `Cn1c(C(C)(C)C)cc(=NC(=O)c2cc(C(F)(F)F)ccc2OCC(C)(C)O)n1CC1CCC1` [RNB-61], which half-life (P-gp; brain, iv, RNB-61 1 mg kg^–1 i.v. + tariquidar 5 mg kg^–1 i.v., read-out: brain T1/2 (converted)) is on record?
Its half-life is 8.42 h.

What about the Tmax (P-gp; brain, iv, RNB-61 1 mg kg^–1 i.v. + tariquidar 5 mg kg^–1 i.v., read-out: brain Tmax) of the same molecule?
The Tmax was 0.53 h.

What about the Kp (P-gp; intravenous, ratio of AUClast in brain and plasma, + tariquidar 5 mg kg^–1, read-out: brain-plasma partition coefficient Kp) of the same molecule?
The Kp was 0.747.

What about the Cmax (P-gp; plasma, iv, RNB-61 1 mg kg^–1 i.v. + tariquidar 5 mg kg^–1 i.v.) of the same molecule?
Its Cmax is 737 ng/mL.

And the AUC(0-inf) (P-gp; plasma, iv, RNB-61 1 mg kg^–1 i.v. + tariquidar 5 mg kg^–1 i.v., read-out: plasma AUCinf)?
The AUC(0-inf) was 3560 ng·h/mL.

What about the AUC(0-t) (P-gp; plasma, iv, RNB-61 1 mg kg^–1 i.v. + tariquidar 5 mg kg^–1 i.v., read-out: plasma AUClast) of the same molecule?
Its AUC(0-t) is 2510 ng·h/mL.

And the clearance (P-gp; plasma, iv, RNB-61 1 mg kg^–1 i.v. + tariquidar 5 mg kg^–1 i.v., read-out: plasma CL (converted))?
The clearance was 4.68 mL/min/kg.

What about the half-life (P-gp; plasma, iv, RNB-61 1 mg kg^–1 i.v. + tariquidar 5 mg kg^–1 i.v., read-out: plasma T1/2 (converted)) of the same molecule?
Its half-life is 3.68 h.

What about the Tmax (P-gp; plasma, iv, RNB-61 1 mg kg^–1 i.v. + tariquidar 5 mg kg^–1 i.v., read-out: plasma Tmax) of the same molecule?
Its Tmax is 0.083 h.

What about the “AUClast lower in the brain compared to plasma” value ([1]; 1 mg kg^–1 i.v., no tariquidar) of the same molecule?
Its value is greater than 10 fold.

What about the “peak brain concentration lower compared to plasma level” value ([1]; 1 mg kg^–1 i.v., no tariquidar) of the same molecule?
The value was greater than 20 fold.

And the “brain AUCinf” value [1, 3]?
The value was 4386 ng·h/mL.

What about the “brain AUClast” value [1, 3] of the same molecule?
Its value is 1877 ng·h/mL.

And the “brain Cmax” value [1, 3]?
The value was 342 ng/mL.

And the “brain AUCinf” value [1, 4]?
Its value is 375 ng·h/mL.

And the “brain AUClast” value [1, 4]?
Its value is 215 ng·h/mL.

What about the “brain Cmax” value [1, 4] of the same molecule?
The value was 41.3 ng/mL.

What about the half-life ([1]; male, C57/BL6, mouse, brain, iv, RNB-61 1 mg kg^–1 i.v., no tariquidar, read-out: brain T1/2 (converted)) of the same molecule?
The half-life was 5.98 h.

And the Tmax ([1]; male, C57/BL6, mouse, brain, iv, RNB-61 1 mg kg^–1 i.v., no tariquidar, read-out: brain Tmax)?
The Tmax was 0.58 h.

And the Kp ([1]; male, C57/BL6, mouse, iv, ratio of AUClast in brain and plasma, 1 mg kg^–1 i.v., no tariquidar, read-out: brain-plasma partition coefficient Kp)?
Its Kp is 0.088.

And the Cmax ([1]; male, C57/BL6, mouse, plasma, iv, RNB-61 1 mg kg^–1 i.v., no tariquidar)?
The Cmax was 972 ng/mL.

What about the AUC(0-inf) ([1]; male, C57/BL6, mouse, plasma, iv, RNB-61 1 mg kg^–1 i.v., no tariquidar, read-out: plasma AUCinf) of the same molecule?
The AUC(0-inf) was 3320 ng·h/mL.

What about the AUC(0-t) ([1]; male, C57/BL6, mouse, plasma, iv, RNB-61 1 mg kg^–1 i.v., no tariquidar, read-out: plasma AUClast) of the same molecule?
Its AUC(0-t) is 2430 ng·h/mL.

What about the clearance ([1]; male, C57/BL6, mouse, plasma, iv, RNB-61 1 mg kg^–1 i.v., no tariquidar, read-out: plasma CL (converted)) of the same molecule?
The clearance was 5.02 mL/min/kg.

What about the half-life ([1]; male, C57/BL6, mouse, plasma, iv, RNB-61 1 mg kg^–1 i.v., no tariquidar, read-out: plasma T1/2 (converted)) of the same molecule?
Its half-life is 4 h.

And the Tmax ([1]; male, C57/BL6, mouse, plasma, iv, RNB-61 1 mg kg^–1 i.v., no tariquidar, read-out: plasma Tmax)?
Its Tmax is 0.25 h.

What about the “brain Cmax and AUClast higher with tariquidar than RNB-61 alone” value ([1]; tariquidar 5 mg kg^–1) of the same molecule?
Its value is roughly 10 fold.

What about the IC50 (TRPV1) of the same molecule?
The IC50 was greater than 50000 nM.

And the EC50 (mouse CB2R)?
Its EC50 is 0.25 ± 0.13 nM.

And the hepatocyte CLint at 1 μM ([2]; C57BL6, mouse)?
The hepatocyte CLint at 1 μM was 48.5 µL/min/1e6 cells.

And the hepatocyte CLint at 1 μM ([2]; human, pooled cryopreserved human hepatocytes in suspension culture)?
The hepatocyte CLint at 1 μM was 85 µL/min/1e6 cells.
